Results as given in patent US5585259A, “Ecotin as a factor Xa, XIa, and XIIa inhibitor” (Corvas International, Inc., priority 1993, dated 1996).

Columns and labels:
[1] = target: thrombin; test: Protease assay, chromogenic substrate; assay type: biochemical; conditions: 30 minutes preincubation, read-out: Inhibition constant
Protocol: (§1) Protease activity was determined using commercially available chromogenic substrates and purified proteases. The initial rate was determined with a Thermomax (Molecular Devices) microtiterplate reader at 405 nm wavelength at room temperature. The buffer used for all measurements contained 100 mM TRIS, 140 mM NaCl, 0.1% BSA, pH 7.4. […]
To determine inhibition constants, the protease was incubated during 90 minutes (factor Xa), 45 minutes (trypsin), or 30 minutes (thrombin, plasmin, factor VIIa-tissue factor, human plasma kallikrein, porcine pancreatic elastase, factor XIa, factor XIIa, activated protein C, recombinant t-PA and urokinase) in 150 μl before the substrate (50 μl) was added. The inhibition constant was determined from a plot of the relative activity versus the inhibitor concentration fitted with the following equation: […]
except for thrombin where the total enzyme concentration can be neglected compared to the inhibitor concentration and the equation is reduced to:
vi /vo =1/(1+[It ]/Ki *).
vi and vo are the initial rates measured in presence and in absence of inhibitor, [It ] and [Et ] are the total inhibitor and enzyme concentrations and Ki * is the apparent inhibition constant. […]

[2] = target: chymotrypsin; test: Protease assay; assay type: biochemical; conditions: read-out: Inhibition constant
Protocol: Protease activity was determined using commercially available chromogenic substrates and purified proteases. The initial rate was determined with a Thermomax (Molecular Devices) microtiterplate reader at 405 nm wavelength at room temperature. The buffer used for all measurements contained 100 mM TRIS, 140 mM NaCl, 0.1% BSA, pH 7.4.
(§2) vi /vo ={([Et ]-[It ]-Ki *)+[([It ]+i
(§3) *-[Et ])^2 +4Ki *[Et ]]^ 1/2 }/2[Et ]
(§4) vi and vo are the initial rates measured in presence and in absence of inhibitor, [It ] and [Et ] are the total inhibitor and enzyme concentrations and Ki * is the apparent inhibition constant. It was assumed that under these conditions the apparent inhibition constant is not dependent on the substrate concentration and corresponds to the binding constant of the inhibitor to the active site of the protease in the conditions of the experiment.

[3] = target: activated protein C; test: Protease assay, chromogenic substrate; assay type: biochemical; conditions: 30 minutes preincubation, read-out: Inhibition constant
Protocol: as §1
(§5) To determine inhibition constants, the protease was incubated during 90 minutes (factor Xa), 45 minutes (trypsin), or 30 minutes (thrombin, plasmin, factor VIIa-tissue factor, human plasma kallikrein, porcine pancreatic elastase, factor XIa, factor XIIa, activated protein C, recombinant t-PA and urokinase) in 150 μl before the substrate (50 μl) was added. The inhibition constant was determined from a plot of the relative activity versus the inhibitor concentration fitted with the following equation:
as §2, §3, §4

[4] = test system: factor VIIa-tissue factor complex; test: Protease assay, chromogenic substrate; assay type: biochemical; conditions: concentrations up to 1 μM
Protocol: as §1, §5, §2, §3, §4

[5] = target: factor XIIA; test: Protease assay, chromogenic substrate; assay type: biochemical; conditions: 30 minutes preincubation, read-out: Inhibition constant
Protocol: as §1, §5, §2, §3, §4

[6] = target: factor XIa; test: Protease assay, chromogenic substrate; assay type: biochemical; conditions: 30 minutes preincubation, read-out: Inhibition constant
Protocol: as §1, §5, §2, §3, §4

[7] = target: factor Xa; test: Protease assay, chromogenic substrate; assay type: biochemical; conditions: 90 minutes preincubation, read-out: Inhibition constant
Protocol: as §1, §5, §2, §3, §4

[8] = target: human plasma kallikrein; test: Protease assay, chromogenic substrate; assay type: biochemical; conditions: 30 minutes preincubation, read-out: Inhibition constant
Protocol: as §1, §5, §2, §3, §4

[9] = test system: plasmin; test: Protease assay, chromogenic substrate; assay type: biochemical
Protocol: as §1, §5, §2, §3, §4

[10] = target: rt-PA; test: Protease assay, chromogenic substrate; assay type: biochemical; conditions: 30 minutes preincubation, read-out: Inhibition constant
Protocol: as §1, §5, §2, §3, §4

[11] = target: urokinase; test: Protease assay, chromogenic substrate; assay type: biochemical; conditions: 30 minutes preincubation, read-out: Inhibition constant
Protocol: as §1, §5, §2, §3, §4

[12] = test system: occlusive thrombus formation in rat carotid artery; test: Rat model of FeCl3-induced platelet-dependent arterial thrombosis; assay type: in vivo; conditions: 10 μg/kg/min continuous intravenous infusion
From the text: The rat model is a well characterized model of platelet dependent, arterial thrombosis which has been used in the evaluation potential antithrombotic compounds such as direct thrombin inhibitors. Kurz et al., 60 Thromb. Res. 269, 1990. […] In this model a platelet-rich, occlusive thrombus is formed in a segment of the rat carotid artery treated with a fresh solution of FeCl3 absorbed to a piece of filter paper. The FeCl3 is thought to diffuse into the treated segment of artery and causes de-endothelialization resulting in thrombus formation. The effect of a test compound on the incidence of occlusive thrombus formation following the application of the FeCl3 is monitored by ultrasonic flowtometry, and is used as the primary end point. The use of flowtometry is a modification of the original procedure in which thermal detection of clot formation was employed. Kurz et al., supra.
Male Harlan Sprague Dawley rats (420-450 g) were acclimated at least 72 hours prior to use and fasted for 12 hours prior to surgery with free access to water. The animals were prepared, anesthetized with Nembutal with catheters for blood pressure monitoring, drug and anesthesia delivery being implanted as described above. The left carotid artery was isolated by making a midline cervical incision followed by blunt dissection and spreading techniques to separate a 2 cm segment of the vessel from the carotid sheath. A silk suture was inserted under the proximal and distal ends of the isolated vessel to provide clearance for the placement of an ultrasonic flow probe (Transonic) around the proximal end of the vessel. […]
Following surgery, the animals were randomized in either a control (saline infusion) or treatment group with test compound (Ecotin) with at least 4 animals per group at the indicated dose. […] Blood pressure, blood flow, heart rate, and respiration were monitored for 60 minutes.
The incidence of occlusion (defined as the attainment of zero blood flow) was recorded as the primary end point. […] The segment was re-weighed following removal of the clot and the difference recorded as total % clot weight. […]

[13] = test system: pancreatic elastase; conditions: cited from earlier work
[14] = test system: rat mast cell chymase; conditions: cited from earlier work
[15] = test system: human serosal urokinase; conditions: cited from earlier work
[16] = test system: human pulmonary tryptase; conditions: cited from earlier work
[17] = test system: kallikrein; conditions: cited from earlier work
[18] = test system: papain; conditions: cited from earlier work
[19] = test system: pepsin; conditions: cited from earlier work
[20] = test system: Staphylococcus aureus V8 protease; conditions: cited from earlier work
[21] = test system: subtilisin; conditions: cited from earlier work
[22] = test system: thermolysin; conditions: cited from earlier work
[23] = test system: eight soluble endoproteases which are isolated from E. coli (Do, Re, Mi, Fa, So, La, Ci, Pi); conditions: cited from earlier work
[24] = test system: chymotrypsin-like (protease I) esterase; conditions: cited from earlier work
[25] = test system: trypsin-like (protease II) esterase; conditions: cited from earlier work
[26] = test system: three membrane-associated serine proteases; conditions: cited from earlier work
[27] = test system: trypsin; conditions: cited from earlier work
[28] = test system: elastase; conditions: cited from earlier work

Substance: Ecotin: endogenous E. coli periplasmic serine protease (trypsin) inhibitor protein; recombinant form from pMa5-CI, molecular mass 16,098 Daltons
- Ki [1]: 7200 nM
- Ki [2]: < 2.5 nM
- Ki [3]: > 2500 nM
- inhibition of factor VIIa-tissue factor complex [4]: not inhibited
- Ki [5]: < 2.5 nM
- Ki [6]: 2.5 to 25 nM
- Ki [7]: 0.05 to 0.2 nM
- Ki [8]: 1.4 nM
- Plasmin inhibition ([9]; 1 μM recombinant Ecotin): 15%
- Inhibition constant ([9]; plasmin, 30 minutes preincubation): inactive
- Ki [10]: > 2500 nM
- Ki [11]: > 2500 nM
- Time to Occlusion [12]: 20.1 ± 0.9 min
- Incidence of Occlusion ([12]; 60 minute observation): 2/6
- Clot Formation (%) ([12]; p<0.01 vs Control): 12.73 ± 8.04%
- inhibition of pancreatic elastase [13]: potent inhibitor
- inhibition of rat mast cell chymase [14]: potent inhibitor
- inhibition of human serosal urokinase [15]: potent inhibitor
- inhibition of human pulmonary tryptase [16]: does not inhibit
- inhibition of kallikrein [17]: does not inhibit
- inhibition of papain [18]: does not inhibit
- inhibition of pepsin [19]: does not inhibit
- inhibition of Staphylococcus aureus V8 protease [20]: does not inhibit
- inhibition of subtilisin [21]: does not inhibit
- inhibition of thermolysin [22]: does not inhibit
- inhibition of the eight soluble E. coli endoproteases [23]: does not inhibit
- inhibition of chymotrypsin-like (protease I) esterase in E. coli [24]: does not inhibit
- inhibition of trypsin-like (protease II) esterase in E. coli [25]: does not inhibit
- inhibition of three membrane-associated serine proteases [26]: insensitive to inhibition
- inhibition of trypsin [27]: able to inhibit
- inhibition of elastase [28]: able to inhibit
